One assay relates to C57B/6J mice. Kind of assay: Treadmill running endurance test. In kind it is in vivo, mouse. As for the experimental part:
Mice were acclimated to moderate treadmill running (10 m/min for 15 min) every other day for 1 week. After acclimation, basal running endurance was determined by placing each mouse on a treadmill, gradually increasing the speed from 0 to 15 m/min, and maintaining 15 m/min until the mouse was exhausted. The time and distance run until exhaustion were recorded as the basal endurance values (Week 0).
Treatments were administered orally.
Expression of biomarkers characteristic of an oxidative phenotype in skeletal muscle, typically, has been correlated with increased oxidative performance (e.g., increased running endurance) of such skeletal muscle. […] Accordingly, to determine the functional effects of ligand, age and weight matched cohorts of treated and control mice were subjected to an endurance treadmill performance test before (week 0) and after (week 5) treatment.
In addition to affecting the contractile apparatus of skeletal muscle, exercise training also increases skeletal muscle mitochondrial density (e.g., Freyssenet et al., Arch. Physiol. Biochem., 104(2): 129-141, 1996). […] Mice in all groups were acclimated to moderate treadmill running and basal running endurance was determined as described in Example 1. Thereafter, mice in the exercise-trained groups received four weeks (5 days/week) of exercise training on a treadmill inclined at 5 degrees. […] At the end of four weeks, all exercise-trained mice were running for 50 min/day at 18 m/min. […] Unless otherwise noted, V, GW, Tr and GW+Tr subjects described in this and the examples below were similarly treated. At the end of the drug treatment and/or training protocol (Week 5) 6 mice per group were subjected to the running test. […] RNA was prepared real time quantitative PCR performed as described in Example 1.
At the end of the drug treatment and/or training protocol (Week 5) 6 mice per group were subjected to the running test.
At the end of the drug treatment and/or training protocol (Week 5), running endurance of six mice per group was determined in the same manner as was basal running endurance. […] on three mice in each group to confirm that changes observed in the skeletal muscle were not due to the acute run, but were related to the exercise training.

A further assay relates to primary muscle cells. Kind of assay: Gene expression in wild type and PPARδ null primary muscle cells. In kind it is cell-based, mouse. The settings on record: wild type vs PPARδ null cells.
The subject of the next assay is mitochondrial DNA. Kind of assay: Mitochondrial DNA expression by QPCR. In kind it is in vivo, mouse. As for the experimental part:
(§1) In addition to its effects on the fiber type, exercise training increased skeletal muscle mitochondrial biogenesis, which can be measured as a function of mitochondrial DNA expression levels using quantitative real time PCR (QPCR). Mitochondrial DNA expression levels were determined in muscles of V, GW, Tr, and GW+Tr subjects using quantitative real time PCR. […] Such an increase is known to contribute to enhanced endurance capacity (e.g., Holloszy, Med. Sci. Sports 7:155-64, 1975). Slow-twitch and fast-twitch muscle fiber types also can be distinguished by myosin isoform expression (Gauthier and Lowey, J. Cell Biol. 81:10-25, 1979; Fitzsimons and Hoh, Biochem. J. 193:229-33, 1981). […] Therefore, at least at the transcriptional level, the PPARδ agonist was capable of inducing some proteins characteristic of a slow-twitch muscle fiber phenotype.

A further assay has as its system myosin heavy chain (MHC). In words: Myosin heavy chain (MHC) expression. In kind it is in vivo, mouse. As to the method: as §1
The nature of assay [1]: Muscle triglyceride (mTG) content. In kind it is in vivo, mouse. As for the experimental part:
Altered triglycerides can be used to access changes in muscle oxidative capacity. Muscle triglyceride (mTG) content was measured as previously described (Wang et al., PLoC Biol, 2:e294, 2004) using a kit from Thermo Electron Corporation. […] Gene and/or protein expression that is induced by a combination of exercise and drug treatment (e.g., PPARδ agonist administration) but not by either input alone is believed to be a new discovery. This type of response can be used to further characterize the intersection of pharmacologic and physiologic genetic networks. For example, one or more genes and/or proteins uniquely regulated by one or more drugs {e.g., PPARδ agonists) and exercise can be used as markers, for instance, of illicitly boosting performance in professional and/or amateur athletes.

The test system of another assay is AMPK. In words: Western blot of phospho-AMPK in quadriceps. In kind it is in vivo, mouse. The following applies: sedentary or trained muscles. The source says: (§2) Exercise training is known to activate kinases, such as p44/42 MAPK and AMPK, which regulate gene expression in skeletal muscle (Chen et al., Diabetes, 52:2205-12, 2003; Goodyear et al., Am. J. Physiol, 271:[…]-8, 1996). AMPK affects skeletal muscle gene expression and oxidative metabolism (Chen et al., Diabetes. 52: 2205-12, 2003, Reznick et al., J. Physiol. 574: 33-9, 2006). The interaction between exercise-regulated kinases and PPARδ signaling is described in this Example. The levels of phospho-p44/42 MAPK and phospho-AMPK a subunit and total AMPK were determined in protein homogenates of quadriceps muscle by Western blot. Antibodies specific for phospho-p44/42 MAPK, phospho- and total-AMPK αl antibodies were obtained from Cell Signaling. The phospho-specific AMPK αl antibody recognizes the key activating threonine in the activation loop.
On the technique in general: Immunoblotting shows a protein as a band on a membrane.

In a further assay the test system is p44/42 MAPK. In words: Western blot of phospho-p44/42 MAPK in quadriceps. In kind it is in vivo, mouse. The following applies: sedentary or trained muscles.
Description: as §2

The nature of assay [2]: Exercise effect in healthy adult human subjects (Example 9). In kind it is in vivo. The following applies: 1 to 20 mg per day oral with aerobic exercise. As for the experimental part:
Healthy adult human subjects perform aerobic exercise (e.g., running) for at least 30 minutes (e.g., 30-90 minutes) for at least 3-4 days per week (e.g., 3-7 days per week) for at least 2 weeks (e.g., at least 4-12 weeks). The exercise is performed at 40%-50% maximal heart rate, […] maximal heart rate, 60%-70% maximal heart rate, or 75%-80% maximal heart rate, where maximum heart rate for a human subject is calculated as: 220 bps−(age of the subject). […] Subjects can continue to perform aerobic exercise while receiving GW1516. […] The exercise effect achieved in the treated subjects (e.g., running endurance) can be compared to such an effect in untreated subjects. Exercise effect can be measured using methods known in the art, such as measuring aerobic or running endurance (for example measuring distance run until exhaustion or amount of time to run a particular distance). In some instances, the exercise effect of interest is increased in treated subjects by at least 5%, such as at least 10% as compared to untreated subjects.

The mark [3] stands for this setting: 4 weeks exercise training + GW1516, Week 5.

Description for primary muscle cells: Primary muscle cells were isolated from wild type and PPARδ null mice as previously described (Rando and Blau, J. Cell. Biol. 125(6): 1275-87, 1994). […] RNA expression of UCP3, PDK4, LPL, and HSL was determined using real time quantitative PCR as described in Example 1.
To test this possibility, wild-type and PPARδ null primary muscle cells were used.

Regarding `Cc1cc(SCc2sc(-c3ccc(C(F)(F)F)cc3)nc2C)ccc1OCC(=O)O` [GW1516, (2-methyl-4(((4-methyl-2-(4-trifluoromethylphenyl)-1,3-thiazol-5-yl)methyl)sulfanyl)phenoxy)acetic acid], in the assay on C57B/6J mice (setting [3]), the “increase in running distance over vehicle-treated trained mice” value is 70% and the “increase in running time over vehicle-treated trained mice” value came out at 68%. In addition, the “run longer and further than nontreated controls” value in the assay on C57B/6J mice (combined with exercise training) is given as 60%-75%. The “increment in endurance capacity, week 5 vs week 0” value in the assay on C57B/6J mice (exercise and drug treatment, individual mice) came out at 100%. Moreover, in the assay with C57B/6J mice (sedentary mice, 5 mg/kg oral once per day, 4 weeks), the “time spent or distance run on the treadmill prior to exhaustion vs controls” value is “did not significantly differ”. In addition, in the assay on C57B/6J mice (sedentary mice, long-term treatment up to 5 months), the running endurance entry is reported as “did not change”. Moreover, the “induction of oxidative genes (UCP3, mCPT I, PDK4)” value in the assay on primary muscle cells is recorded as “mediated via activation of PPARδ”. Further, the “increase in mitochondrial DNA expression” value in the assay on mitochondrial DNA (combination of exercise and GW1516) is “approximately 50%”. Besides, in the assay with mitochondrial DNA (drug alone), the “mitochondrial DNA expression” value is “not changed”. In addition, the “MHC I and MHC lib expression” value in the assay with myosin heavy chain (MHC) (GW1516 combined with exercise) is listed as “did not induce additional changes”. In the assay on myosin heavy chain (MHC) (sedentary mice), the “expression of MHC Ha” value is given as “did not alter”. Moreover, in the assay on myosin heavy chain (MHC) (sedentary mice vs vehicle), the “expression of MHC I” value is “increased” and the “expression of MHC lib” value is “decreased”. Further, in assay [1] (GW1516-treated exercise trained mice), the “exercise-induced increase in muscle triglycerides” value is recorded as “completely reversed”. The “mTG content vs vehicle” value in assay [1] (sedentary mice) is recorded as “comparable”. The “activation of AMPK” value in the assay with AMPK is “failed to activate”. In addition, in the assay on p44/42 MAPK, the “activation of p44/42” value is on record as “failed to activate”. Moreover, in assay [2], the “increase of exercise effect vs untreated subjects” value was “at least 5%”.
